What was measured:
[1] = system: HLA-I and IFN pathway proteins; test: Whole proteome analysis of MCC cell lines with and without IFN-γ; format: cell-based, human
Protocol: Protein expression of MCC cell lines was assessed. Briefly, cell pellets of MCC cell lines with and without IFN-γ treatment were lysed in 8M Urea and digested to peptides using LysC and Trypsin (Promega). 400 μg peptides were labeled with TMT10 reagents (Thermo Fisher, 126-MCC-290, 127N-MCC-350_IFN, 127C MCC-275_IFN, 128N MCC-275, 128C MCC-350, 129N_MCC-301_IFN, 129C-MCC-277_IFN, 130N-MCC-290_IFNy, 130C MCC-277, 131 MCC-301) and then pooled for subsequent fractionation and analysis. Pooled peptides were separated into 24 fractions using offline high pH reversed phase fractionation. 1 μg per fraction was loaded onto an analytical column (20-30 cm with 1.9 μm C18 Reprosil beads [Dr. Maisch HPLC GmbH], packed in-house, PicoFrit 75 μM inner diameter, 10 μM emitter [New Objective]). Peptides were eluted with a linear gradient (EasyNanoLC 1000 or 1200, Thermo Scientific) ranging from 6-30% Buffer B (either 0.1% formic acid or 0.5% AcOH and 80% or 90% acetonitrile) over 84 min 30-90% Buffer B over 9 min, and held at 90% Buffer B for 5 min at 200 nl/min. During data dependent acquisition, peptides were analyzed on a Fusion Lumos (Thermo Scientific). Full scan MS was acquired at a 60,000 from 300-1,800 m/z. AGC target was set to 4e5 and 50 ms. […]

[2] = system: class I pathway and IFN-γ pathway proteins (STAT1/p-STAT1) in MCC lines; test: Whole proteome analysis (TMT LC-MS/MS) of MCC lines with and without IFNγ; format: cell-based, human; conditions: MCC lines non-IFN-responsive by flow cytometry
Protocol: FIG. 2D is a proteomics heatmap depicting the relative expression of key IFN-γ pathway components in 4 of the MCC lines, both at baseline and after IFN-γ treatment.
FIG. 2E comprises graphs summarizing a targeted analysis of normalized STAT1 peptide counts (left) and STAT-Y701y phosphosite counts (right) between untreated and IFN-γ-treated cell lines.
Protein expression of MCC cell lines was assessed as described previously (Mertins et al. (2018) Nature Protocols 13 (7): 1632-61. Briefly, cell pellets of MCC cell lines with and without IFNγ treatment were lysed in 8M Urea and digested to peptides using LysC and Trypsin (Promega). 400 μg peptides were labeled with TMT10 reagents (Thermo Fisher, 126-MCC290, 127N-MCC350_IFN, 127C MCC275_IFN, 128N MCC275, 128C MCC350, 129N_MCC301_IFN, 129C-MCC277, 130N-MCC290_IFNy, 130C MCC277 IFN, 131 MCC301) and then pooled for subsequent fractionation and analysis. Pooled peptides were separated into 24 fractions using offline high pH reversed phase fractionation. 1 μg per fraction was loaded onto an analytical column (20-30 cm, 1.9 μm C18 Reprosil beads (Dr. Maisch HPLC GmbH), packed in-house PicoFrit 75 μM inner diameter, 10 μM emitter (New Objective)). […] During data dependent acquisition, peptides were analyzed on a Fusion Lumos (Thermo Scientific). […]

Substance	class I upregulation in matched proteomes ([1]; 4 MCC lines)	HLA-I and IFN pathway upregulation at the protein level ([1]; MCC-350 (non-IFN-γ-responsive), including STAT1 phosphorylation)	STAT1/p-STAT1 protein expression [2]
IFN-γ: interferon gamma used to stimulate MCC cell lines	confirmed	global lack of IFN-induced HLA-I and IFN pathway upregulation	
IFN-y: type II interferon, recombinant human, used to treat MCC cells			lack of IFN-induced STAT1/p-STAT1 protein expression

— patent publication US20230203485A1, “METHODS FOR MODULATING MHC-I EXPRESSION AND IMMUNOTHERAPY USES THEREOF” (Dana-Farber Cancer Institute, Inc., priority 2020, published 2023)
